Broadly, the IC50 is the concentration needed to halve the response being measured. A lower IC50 goes with greater potency in that assay.

The experiment addresses hCRTH2 receptor (Homo sapiens (Human), UniProt Q9Y5Y4). Briefly: hCRTH2 receptor membranes radioligand (3H-PGD2) displacement assay. To be noted: 3H-PGD2 radioligand displacement, HEK293-hCRTH2 membranes. The class given is binding. In a few lines:
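HEK293-hCRTH2 membranes, 20 μg/well; 3H-PGD2 added at 2.5 nM; binding buffer 50 mM Tris, 10 mM MnCl2, 1 mM EDTA, pH 7.0; 90 min RT; GF/C filtration, scintillation count. Nonspecific binding: PGD2 at […].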
A general note: Displacement assays read how much labelled ligand stays bound in the presence of the test substance.

Chain of hCRTH2 receptor (Q9Y5Y4 whole entry): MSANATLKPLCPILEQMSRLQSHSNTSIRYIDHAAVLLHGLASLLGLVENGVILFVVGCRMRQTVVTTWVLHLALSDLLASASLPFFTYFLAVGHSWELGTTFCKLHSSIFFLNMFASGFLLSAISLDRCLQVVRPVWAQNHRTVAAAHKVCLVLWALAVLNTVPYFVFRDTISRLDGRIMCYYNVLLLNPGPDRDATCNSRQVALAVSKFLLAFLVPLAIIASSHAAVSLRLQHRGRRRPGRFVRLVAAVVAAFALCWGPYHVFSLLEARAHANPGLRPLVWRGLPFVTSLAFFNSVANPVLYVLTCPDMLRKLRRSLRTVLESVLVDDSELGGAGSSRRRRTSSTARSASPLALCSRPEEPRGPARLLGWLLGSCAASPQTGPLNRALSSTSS

In turn, `CCOc1ccc(CC(=O)O)cc1-c1ccc(F)c2c1CN(C(=O)OCc1ccnn1C)CC2` [Example 367, 8-(5-Carboxymethyl-2-ethoxy-phenyl)-5-fluoro-3,4-dihydro-1H-isoquinoline-2-carboxylic acid 2-methyl-2H-pyrazol-3-ylmethyl ester] returned an IC50 of 8.8 nM. In the case of `COc1ccc(CC(=O)O)cc1-c1ccc(F)c2c1CN(C(=O)OCc1ccccc1)C2` [Example 18, 4-(5-Carboxymethyl-2-methoxy-phenyl)-7-fluoro-1,3-dihydro-isoindole-2-carboxylic acid benzyl ester], the half-inhibitory concentration (IC50) came to 165 nM.

With `C[C@@H](CC(=O)N1CCc2c(F)ccc(-c3ccc(CC(=O)O)cc3OCC(F)(F)F)c2C1)c1ccccc1` [Example 287, [4-[5-Fluoro-2-((S)-3-phenyl-butyryl)-1,2,3,4-tetrahydro-isoquinolin-8-yl]-3-(2,2,2-trifluoro-ethoxy)-phenyl]-acetic acid], the half-inhibitory concentration (IC50) was 8.1 nM. As for `COc1ccc(CC(=O)O)cc1-c1ccc(F)c2c1CN(C(=O)C1Cc3ccccc3C1)CC2` [Example 110, {3-[5-Fluoro-2-(indane-2-carbonyl)-1,2,3,4-tetrahydro-isoquinolin-8-yl]-4-methoxy-phenyl}-acetic acid], the IC50 is 172 nM.

The compound `COc1ccc(CC(=O)O)cc1-c1ccc(F)c2c1CN(C(=O)OCCc1scnc1C)CC2` [Example 153, 8-(5-Carboxymethyl-2-methoxy-phenyl)-5-fluoro-3,4-dihydro-1H-isoquinoline-2-carboxylic acid 2-(4-methyl-thiazol-5-yl)-ethyl ester] gave an IC50 of 40.7 nM. Then `COc1ccc(CC(=O)O)cc1-c1ccc(F)c2c1CN(C(=O)OCc1csc(C)n1)CC2` [Example 150, 8-(5-Carboxymethyl-2-methoxy-phenyl)-5-fluoro-3,4-dihydro-1H-isoquinoline-2-carboxylic acid 2-methyl-thiazol-4-ylmethyl ester], with 7.12 nM. Then `Cc1ccc(CC(=O)O)cc1-c1ccc(F)c2c1CN(C(=O)OCc1ccccc1)CC2` [Example 7, 8-(5-Carboxymethyl-2-methyl-phenyl)-5-fluoro-3,4-dihydro-1H-isoquinoline-2-carboxylic acid benzyl ester], with 25.6 nM; and `CCOc1cc(CC(=O)O)ccc1-c1ccc(F)c2c1CN(C(=O)NCc1ccc(F)cc1)CC2` [Example 442, {3-Ethoxy-4-[5-fluoro-2-(4-fluoro-benzylcarbamoyl)-1,2,3,4-tetrahydro-isoquinolin-8-yl]-phenyl}-acetic acid], with 5.3 nM. Consider `COc1ccc(CC(=O)O)cc1-c1c(F)ccc2c1CN(C(=O)OCc1ccccc1)CC2` [Example 33, 8-(5-Carboxymethyl-2-methoxy-phenyl)-7-fluoro-3,4-dihydro-1H-isoquinoline-2-carboxylic acid benzyl ester], for which the concentration for half-maximal inhibition (IC50) stood at 113 nM. Then `CCOc1ccc(CC(=O)O)cc1-c1ccc(F)c2c1CN(C(=O)CC(C)c1ccccc1OC)CC2` (racemic) [Example 282], with 2.2 nM; and `COc1ccc(CC(=O)O)cc1-c1ccc(F)c2c1CN(C(=O)NCCc1ccccc1)CC2` [Example 133, [3-(5-Fluoro-2-phenethylcarbamoyl-1,2,3,4-tetrahydro-isoquinolin-8-yl)-4-methoxy-phenyl]-acetic acid], with 13 nM; and `CC(C)Oc1ccc(OCC(=O)O)cc1-c1ccc(F)c2c1CN(C(=O)[C@@H]1C[C@H]1c1ccccc1)CC2` [Example 161, {3-[5-Fluoro-2-((1R,2R)-2-phenyl-cyclopropanecarbonyl)-1,2,3,4-tetrahydro-isoquinolin-8-yl]-4-isopropoxy-phenoxy}-acetic acid], with 1.38 nM. In the case of `CCOc1ccc(CC(=O)O)cc1-c1ccc(F)c2c1CN(C(=O)O[C@H](C)c1ccccc1)CC2` [Example 364, 8-(5-Carboxymethyl-2-ethoxy-phenyl)-5-fluoro-3,4-dihydro-1H-isoquinoline-2-carboxylic acid (R)-1-phenyl-ethyl ester], the IC50 was determined as 6 nM.

Turning to `CCOc1cc(C(C)C(=O)O)ccc1-c1ccc(F)c2c1CN(C(=O)OCc1ccccc1)CC2` (racemic) [Example 425], the IC50 is 11.3 nM.

In turn, `COc1ccc(CC(=O)O)cc1-c1ccc(F)c2c1CN(C(=O)CCc1ccccc1C)CC2` [Example 56, {3-[5-Fluoro-2-(3-o-tolyl-propionyl)-1,2,3,4-tetrahydro-isoquinolin-8-yl]-4-methoxy-phenyl}-acetic acid] gave a half-inhibitory concentration (IC50) of 42.1 nM. As to `CCOc1ccc(CC(=O)O)cc1-c1ccc(F)c2c1CN(C(=O)NCc1ccc(F)cc1)CC2` [Example 434, {4-Ethoxy-3-[5-fluoro-2-(4-fluoro-benzylcarbamoyl)-1,2,3,4-tetrahydro-isoquinolin-8-yl]-phenyl}-acetic acid], the IC50 turned out to be 0.7 nM.

`COc1cc(OC(C)C(=O)O)ccc1-c1ccc(F)c2c1CN(C(=O)OCc1ccccc1)CC2` (stereo not shown) [Example 202, 8-[4-(1-Carboxy-ethoxy)-2-methoxy-phenyl]-5-fluoro-3,4-dihydro-1H-isoquinoline-2-carboxylic acid benzyl ester] registered an IC50 of 179 nM. The result for `COc1ccc(CC(=O)O)cc1-c1ccc(F)c2c1CN(C(=O)NCc1cccc(F)c1)CC2` [Example 131, {3-[5-Fluoro-2-(3-fluoro-benzylcarbamoyl)-1,2,3,4-tetrahydro-isoquinolin-8-yl]-4-methoxy-phenyl}-acetic acid] reads 60.1 nM; that for `CCOc1cc(CC(=O)O)ccc1-c1ccc(F)c2c1CN(C(=O)NCc1ccccc1F)CC2` [Example 440, {3-Ethoxy-4-[5-fluoro-2-(2-fluoro-benzylcarbamoyl)-1,2,3,4-tetrahydro-isoquinolin-8-yl]-phenyl}-acetic acid], 3.8 nM.

`CC(C)(CC(=O)N1CCc2c(F)ccc(-c3cc(CC(=O)O)ccc3OCC(F)(F)F)c2C1)c1ccccc1` [Example 300, [3-[5-Fluoro-2-(3-methyl-3-phenyl-butyryl)-1,2,3,4-tetrahydro-isoquinolin-8-yl]-4-(2,2,2-trifluoro-ethoxy)-phenyl]-acetic acid]: the IC50 turned out to be 14.8 nM. The result for `CCOc1ccc(CC(=O)O)cc1-c1ccc(F)c2c1CN(C(=O)CC(c1ccccn1)C1CC1)CC2` (racemic) [Example 318] reads 114 nM; that for `CC(C)Oc1ccc(CC(=O)O)cc1-c1ccc(F)c2c1CN(C(=O)C[C@@H](C)c1ccccc1)CC2` [Example 292, {3-[5-Fluoro-2-((R)-3-phenyl-butyryl)-1,2,3,4-tetrahydro-isoquinolin-8-yl]-4-isopropoxy-phenyl}-acetic acid], 2.5 nM. The result for `O=C(O)Cc1ccc(F)c(-c2ccc(F)c3c2CN(C(=O)OCc2ccccc2)CC3)c1` [Example 10, 8-(5-Carboxymethyl-2-fluoro-phenyl)-5-fluoro-3,4-dihydro-1H-isoquinoline-2-carboxylic acid benzyl ester] reads 10.1 nM; that for `CCCNC(=O)N1CCc2c(F)ccc(-c3cc(CC(=O)O)ccc3OCC)c2C1` [Example 439, [4-Ethoxy-3-(5-fluoro-2-propylcarbamoyl-1,2,3,4-tetrahydro-isoquinolin-8-yl)-phenyl]-acetic acid], 126 nM; that for `CCOc1cc(CC(=O)O)ccc1-c1ccc(F)c2c1CN(C(=O)CCc1ccccn1)CC2` [Example 349, {3-Ethoxy-4-[5-fluoro-2-(3-pyridin-2-yl-propionyl)-1,2,3,4-tetrahydro-isoquinolin-8-yl]-phenyl}-acetic acid], 0.5 nM. In turn, `CCOc1ccc(CC(=O)O)cc1-c1ccc(F)c2c1CN(C(=O)OCCC(C)(C)O)CC2` [Example 382, 8-(5-Carboxymethyl-2-ethoxy-phenyl)-5-fluoro-3,4-dihydro-1H-isoquinoline-2-carboxylic acid 3-hydroxy-3-methyl-butyl ester] came in with a half-inhibitory concentration (IC50) of 14 nM.

Turning to `COc1ccc(OC(C)C(=O)O)cc1-c1ccc(F)c2c1CN(C(=O)OCc1ccccc1)CC2` (racemic) [Example 414], the half-inhibitory concentration (IC50) stood at 430 nM. The result for `CC(C)Oc1ccc(CC(=O)O)cc1-c1ccc(F)c2c1CN(C(=O)CC(C)c1ccccn1)CC2` (racemic) [Example 293] reads 1.6 nM. The result for `O=C(O)Cc1cccc(-c2ccc(F)c3c2CN(C(=O)OCc2ccccc2)CC3)c1` [Example 24, 8-(3-Carboxymethyl-phenyl)-5-fluoro-3,4-dihydro-1H-isoquinoline-2-carboxylic acid benzyl ester] reads 69.5 nM; that for `COc1ccc(CC(=O)O)cc1-c1ccc(F)c2c1CN(C(=O)CC1Cc3ccccc3C1)CC2` [Example 111, {3-[5-Fluoro-2-(2-indan-2-yl-acetyl)-1,2,3,4-tetrahydro-isoquinolin-8-yl]-4-methoxy-phenyl}-acetic acid], 8.11 nM. Then `COc1ccc(CC(=O)O)cc1-c1ccc(F)c2c1CN(C(=O)Cc1noc3ccccc13)CC2` [Example 121, {3-[2-(2-Benzo[d]isoxazol-3-yl-acetyl)-5-fluoro-1,2,3,4-tetrahydro-isoquinolin-8-yl]-4-methoxy-phenyl}-acetic acid], with 47.2 nM. In the case of `COc1ccc(CC(=O)O)cc1-c1ccc(F)c2c1CN(C(=O)OC(C)C)CC2` [Example 143, 8-(5-Carboxymethyl-2-methoxy-phenyl)-5-fluoro-3,4-dihydro-1H-isoquinoline-2-carboxylic acid isopropyl ester], the IC50 was determined as 348 nM.

Regarding `Cc1cccc(C(C)CC(=O)N2CCc3c(F)ccc(-c4cc(CC(=O)O)ccc4OC(C)C)c3C2)n1` (racemic) [Example 294], the concentration for half-maximal inhibition (IC50) stood at 3.2 nM.

Turning to `COc1c(CC(=O)O)cccc1-c1ccc(F)c2c1CN(C(=O)OCc1ccccc1)CC2` [Example 423, 8-(3-Carboxymethyl-2-methoxy-phenyl)-5-fluoro-3,4-dihydro-1H-isoquinoline-2-carboxylic acid benzyl ester], the IC50 turned out to be 180 nM.
